Oligonucleotides are written 5' to 3', each unit as a sugar letter and its base; * is a phosphorothioate linkage, no mark a phosphodiester; rarer units and linkages stand in square brackets, end groups in braces. Plain capitals give the bases only. k = constrained ethyl (cEt); [5mC] = 5-methylcytosine; d = 2'-deoxy (DNA)
Assays:
AR mRNA [1] = assay: Antisense inhibition of human AR in HuVEC cells, single concentration (electroporation, qRT-PCR RTS3559); format: cell-based
Outline: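 HuVEC cells electroporated with antisense oligonucleotides at a single concentration. AR mRNA quantified by qRT-PCR using human primer-probe set RTS3559 and normalised to total RNA content by RIBOGREEN.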

AR mRNA [2] = assay: Dose-dependent antisense inhibition of human AR in HuVEC cells (electroporation, qRT-PCR RTS3559, IC50); format: cell-based; settings: HuVEC
Outline: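 HuVEC cells dosed with antisense oligonucleotides by electroporation and treated approximately 16 hours. AR mRNA quantified by real-time qPCR with primer probe set RTS3559 and normalised to total RNA by RIBOGREEN; IC50 from dose-response.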

[3] = Table 29, electroporation, approximately 16 hours
[4] = Table 20, 500 nM oligonucleotide, electroporation, approximately 24 hours, relative to untreated control
[5] = Table 32, electroporation, approximately 16 hours
[6] = Table 30, electroporation, approximately 16 hours
[7] = Table 35, electroporation, approximately 16 hours
[8] = 500 nM ASO, electroporation, ~24 h, Table 1
[9] = Table 19, 500 nM oligonucleotide, electroporation, approximately 24 hours, relative to untreated control
[10] = Table 31, electroporation, approximately 16 hours

Substance: 583556 (antisense kA*kA*k[5mC]*dT*dT*d[5mC]*dA*d[5mC]*d[5mC]*dG*dA*dA*dG*kA*kG*kG) [compound 583556]
- % inhibition (AR mRNA [1]; 500 nM ASO, ~24 h, Table 16): 43%
- percent inhibition of AR, 46.9 nM (AR mRNA [2]; [3]): 19%
- percent inhibition of AR, 187.5 nM (AR mRNA [2]; [3]): 47%
- percent inhibition of AR, 750.0 nM (AR mRNA [2]; [3]): 68%
- percent inhibition of AR, 3000.0 nM (AR mRNA [2]; [3]): 66%
- IC50 (AR mRNA [2]; [3]): 340 nM

Substance: 549459 (kA*kT*kG*dG*dT*dT*dG*dA*dT*dT*dT*dA*dA*kT*kG*kG) [compound 549459]
- % inhibition (AR mRNA [1]; 500 nM ASO, electroporation, ~24 h, Table 2): 96%
- % inhibition (AR mRNA [1]; 500 nM ASO, ~24 h, Table 5): 92%
- percent inhibition of AR (AR mRNA [2]; 31.25 nM, ~16 h, Table 6): 16%
- percent inhibition of AR (AR mRNA [2]; 55.6 nM, ~16 h, Table 4): 61%
- percent inhibition of AR (AR mRNA [2]; 62.5 nM, ~16 h, Table 6): 23%
- percent inhibition of AR (AR mRNA [2]; 125.0 nM, ~16 h, Table 6): 50%
- percent inhibition of AR (AR mRNA [2]; 166.7 nM, ~16 h, Table 4): 90%
- percent inhibition of AR (AR mRNA [2]; 500.0 nM, ~16 h, Table 4): 94%
- percent inhibition of AR (AR mRNA [2]; 500.0 nM, ~16 h, Table 6): 85%
- percent inhibition of AR (AR mRNA [2]; 1000.0 nM, ~16 h, Table 6): 92%
- percent inhibition of AR (AR mRNA [2]; 1500.0 nM, ~16 h, Table 4): 97%
- IC50 (AR mRNA [2]; ~16 h, Table 4): 18 nM
- IC50 (AR mRNA [2]; ~16 h, Table 6): 100 nM

Substance: 583855 (k[5mC]*k[5mC]*kT*dT*dT*dG*d[5mC]*dA*dT*dT*d[5mC]*dG*dG*k[5mC]*k[5mC]*kA; antisense) [compound 583855]
- % inhibition (AR mRNA [1]; [4]): 44%
- percent inhibition of AR, 46.9 nM (AR mRNA [2]; [5]): 22%
- percent inhibition of AR, 187.5 nM (AR mRNA [2]; [5]): 50%
- percent inhibition of AR, 750.0 nM (AR mRNA [2]; [5]): 81%
- percent inhibition of AR, 3000.0 nM (AR mRNA [2]; [5]): 91%
- IC50 (AR mRNA [2]; [5]): 180 nM

Substance: 583564 (antisense kG*k[5mC]*kT*dT*d[5mC]*d[5mC]*dT*d[5mC]*d[5mC]*dG*dA*dG*dT*k[5mC]*kT*kT) [compound 583564]
- % inhibition (AR mRNA [1]; 500 nM ASO, ~24 h, Table 16): 45%
- percent inhibition of AR, 46.9 nM (AR mRNA [2]; [3]): 16%
- percent inhibition of AR, 187.5 nM (AR mRNA [2]; [3]): 33%
- percent inhibition of AR, 750.0 nM (AR mRNA [2]; [3]): 55%
- percent inhibition of AR, 3000.0 nM (AR mRNA [2]; [3]): 74%
- IC50 (AR mRNA [2]; [3]): 520 nM

Substance: 583734 (antisense kT*k[5mC]*kA*d[5mC]*dT*dT*d[5mC]*dG*d[5mC]*dG*d[5mC]*dA*d[5mC]*kG*k[5mC]*kT) [compound 583734]
- % inhibition (AR mRNA [1]; 500 nM ASO, ~24 h, Table 18): 46%
- percent inhibition of AR, 46.9 nM (AR mRNA [2]; [6]): 29%
- percent inhibition of AR, 187.5 nM (AR mRNA [2]; [6]): 60%
- percent inhibition of AR, 750.0 nM (AR mRNA [2]; [6]): 74%
- percent inhibition of AR, 3000.0 nM (AR mRNA [2]; [6]): 75%
- IC50 (AR mRNA [2]; [6]): 120 nM

Substance: 584183 (kA*k[5mC]*kA*dG*dG*d[5mC]*dT*d[5mC]*dT*dG*dA*d[5mC]*dT*kA*kG*kG; antisense) [compound 584183]
- % inhibition (AR mRNA [1]; Table 24, 1,000 nM oligonucleotide, electroporation, approximately 24 hours, relative to untreated control): 76%
- percent inhibition of AR, 46.9 nM (AR mRNA [2]; [7]): 3%
- percent inhibition of AR, 187.5 nM (AR mRNA [2]; [7]): 41%
- percent inhibition of AR, 750.0 nM (AR mRNA [2]; [7]): 64%
- percent inhibition of AR, 3000.0 nM (AR mRNA [2]; [7]): 87%
- IC50 (AR mRNA [2]; [7]): 310 nM

Substance: 583692 (antisense kG*kT*kG*dA*dT*dG*dA*dT*dG*d[5mC]*dG*dG*dT*kA*kG*kT) [compound 583692]
- % inhibition (AR mRNA [1]; 500 nM ASO, ~24 h, Table 18): 41%
- percent inhibition of AR, 46.9 nM (AR mRNA [2]; [6]): 8%
- percent inhibition of AR, 187.5 nM (AR mRNA [2]; [6]): 47%
- percent inhibition of AR, 750.0 nM (AR mRNA [2]; [6]): 61%
- percent inhibition of AR, 3000.0 nM (AR mRNA [2]; [6]): 71%
- IC50 (AR mRNA [2]; [6]): 440 nM

Substance: 584111 (kG*kT*kT*dT*dT*d[5mC]*dA*dA*dA*dT*dG*d[5mC]*dA*kG*k[5mC]*k[5mC]; antisense) [compound 584111]
- % inhibition (AR mRNA [1]; Table 23, 500 nM oligonucleotide, electroporation, approximately 24 hours, relative to untreated control): 33%
- percent inhibition of AR, 46.9 nM (AR mRNA [2]; [7]): 22%
- percent inhibition of AR, 187.5 nM (AR mRNA [2]; [7]): 30%
- percent inhibition of AR, 750.0 nM (AR mRNA [2]; [7]): 59%
- percent inhibition of AR, 3000.0 nM (AR mRNA [2]; [7]): 84%
- IC50 (AR mRNA [2]; [7]): 330 nM

Substance: 583584 (antisense k[5mC]*k[5mC]*kG*dA*d[5mC]*dT*dG*dA*dG*dG*d[5mC]*dA*dG*k[5mC]*kT*kG) [compound 583584]
- % inhibition (AR mRNA [1]; 500 nM ASO, ~24 h, Table 16): 44%
- percent inhibition of AR, 46.9 nM (AR mRNA [2]; [3]): 24%
- percent inhibition of AR, 187.5 nM (AR mRNA [2]; [3]): 44%
- percent inhibition of AR, 750.0 nM (AR mRNA [2]; [3]): 52%
- percent inhibition of AR, 3000.0 nM (AR mRNA [2]; [3]): 73%
- IC50 (AR mRNA [2]; [3]): 410 nM

Substance: 549371 (kG*kT*kT*dG*dT*dA*dG*dT*dA*dG*dT*d[5mC]*dG*k[5mC]*kG*kA; antisense) [compound 549371]
- % inhibition (AR mRNA [1]; [8]): 93%
- percent inhibition of AR (AR mRNA [2]; 55.6 nM, ~16 h, Table 3): 30%
- percent inhibition of AR (AR mRNA [2]; 166.7 nM, ~16 h, Table 3): 52%
- percent inhibition of AR (AR mRNA [2]; 500.0 nM, ~16 h, Table 3): 83%
- percent inhibition of AR (AR mRNA [2]; 1500.0 nM, ~16 h, Table 3): 88%
- IC50 (AR mRNA [2]; ~16 h, Table 3): 148 nM

Substance: 560099 (kG*kG*kT*dT*dG*dA*dT*dT*dT*dA*dA*dT*dG*kG*kT*kT) [compound 560099]
- % inhibition (AR mRNA [1]; 500 nM ASO, ~24 h, Table 5): 95%
- percent inhibition of AR (AR mRNA [2]; 31.25 nM, ~16 h, Table 6): 13%
- percent inhibition of AR (AR mRNA [2]; 62.5 nM, ~16 h, Table 6): 29%
- percent inhibition of AR (AR mRNA [2]; 125.0 nM, ~16 h, Table 6): 58%
- percent inhibition of AR (AR mRNA [2]; 500.0 nM, ~16 h, Table 6): 89%
- percent inhibition of AR (AR mRNA [2]; 1000.0 nM, ~16 h, Table 6): 94%
- IC50 (AR mRNA [2]; ~16 h, Table 6): 100 nM

Substance: 583809 (antisense kT*kG*kT*d[5mC]*d[5mC]*dT*dT*dG*dG*dA*dG*dG*dA*kA*kG*kT) [compound 583809]
- % inhibition (AR mRNA [1]; [9]): 45%
- percent inhibition of AR, 46.9 nM (AR mRNA [2]; [10]): 13%
- percent inhibition of AR, 187.5 nM (AR mRNA [2]; [10]): 37%
- percent inhibition of AR, 750.0 nM (AR mRNA [2]; [10]): 68%
- percent inhibition of AR, 3000.0 nM (AR mRNA [2]; [10]): 81%
- IC50 (AR mRNA [2]; [10]): 360 nM

Substance: 549360 (kG*kG*kT*d[5mC]*dG*dA*dA*dG*dT*dG*d[5mC]*d[5mC]*d[5mC]*k[5mC]*k[5mC]*kT; antisense) [compound 549360]
- % inhibition (AR mRNA [1]; [8]): 89%
- percent inhibition of AR (AR mRNA [2]; 55.6 nM, ~16 h, Table 3): 44%
- percent inhibition of AR (AR mRNA [2]; 166.7 nM, ~16 h, Table 3): 58%
- percent inhibition of AR (AR mRNA [2]; 500.0 nM, ~16 h, Table 3): 79%
- percent inhibition of AR (AR mRNA [2]; 1500.0 nM, ~16 h, Table 3): 83%
- IC50 (AR mRNA [2]; ~16 h, Table 3): 116 nM

Substance: 583880 (kT*kT*kT*dG*dG*dT*dG*dT*dA*dA*d[5mC]*d[5mC]*dT*k[5mC]*k[5mC]*k[5mC]; antisense) [compound 583880]
- % inhibition (AR mRNA [1]; [4]): 39%
- percent inhibition of AR, 46.9 nM (AR mRNA [2]; [5]): 13%
- percent inhibition of AR, 187.5 nM (AR mRNA [2]; [5]): 52%
- percent inhibition of AR, 750.0 nM (AR mRNA [2]; [5]): 78%
- percent inhibition of AR, 3000.0 nM (AR mRNA [2]; [5]): 92%
- IC50 (AR mRNA [2]; [5]): 220 nM

Substance: 583835 (kG*kA*kA*dG*d[5mC]*dT*dG*dT*dT*d[5mC]*d[5mC]*d[5mC]*d[5mC]*kT*kG*kG; antisense) [compound 583835]
- % inhibition (AR mRNA [1]; [4]): 44%
- percent inhibition of AR, 46.9 nM (AR mRNA [2]; [5]): 20%
- percent inhibition of AR, 187.5 nM (AR mRNA [2]; [5]): 55%
- percent inhibition of AR, 750.0 nM (AR mRNA [2]; [5]): 74%
- percent inhibition of AR, 3000.0 nM (AR mRNA [2]; [5]): 88%
- IC50 (AR mRNA [2]; [5]): 190 nM

Substance: 583821 (k[5mC]*kA*kG*dA*dA*dA*dT*dG*dG*dT*d[5mC]*dG*dA*kA*kG*kT) [compound 583821]
- % inhibition (AR mRNA [1]; [9]): 42%
- percent inhibition of AR, 46.9 nM (AR mRNA [2]; [10]): 11%
- percent inhibition of AR, 187.5 nM (AR mRNA [2]; [10]): 35%
- percent inhibition of AR, 750.0 nM (AR mRNA [2]; [10]): 61%
- percent inhibition of AR, 3000.0 nM (AR mRNA [2]; [10]): 77%
- IC50 (AR mRNA [2]; [10]): 460 nM
